We go through 89 compounds from a melting point compilation (Tetko et al.; mined from patent text by program, amines drawn as free bases though some values may be those of a salt).

Consider `CC(C)c1nc(-c2ccccc2)n(-c2ccc(F)cc2)c1C=O`, for which the melting point (as a rule, the temperature of the solid-liquid transition) is 159 to 161 °C.

In the case of `O=C(O)/C(=C/c1cnc(CCc2ccccc2)n1Cc1ccc(C(=O)O)cc1)Cc1cccs1`, the melting point came out at 214 °C.

For the compound `Cc1ccc(C)c(NC(=O)N2CCC(c3nc(C4=NOC(c5ccccc5)C4)cs3)CC2)c1` (centres undefined), the melting point lay in the range of 124 to 127 °C.

Regarding `CCC(=O)N1Cc2ccccc2C2(Cc3ccc(Cl)cc3O2)C1` (centres undefined), the melting point fell in the range of 106 to 107 °C.

On to `CCN1C(=O)c2cccc(C)c2Oc2ncccc21`, for which the melting point was 74 to 76 °C.

Compound `C=CCc1ccc(OCCC(C)C)c2c(=O)cc(C(=O)OCC)oc12` returned a melting point of 104 to 106 °C.

With `COc1cn(C(C)(C)C(=O)N(C)C)nc1-c1ccccc1`, the melting point fell in the range of 114 to 116 °C.

The compound `COC(=O)c1c(N)[nH]c2ccccc12` showed a melting point of 136 °C.

Consider `O=c1nc(-c2ccc(NCc3ccccc3)nc2)sc2ccccc12`, for which the melting point lay in the range of 194 to 196 °C.

`COc1cc(-c2nc(C)no2)cc2oc(=O)c(C)c(C)c12`: the melting point was in the range of 172 to 174 °C.

Take `CCN(CC)CC1CCCCN1CC(=O)N1c2ccccc2NC(=O)c2c1ccn2C` (centres undefined): the melting point was 141 to 144 °C.

On to `CC(=O)N1CCN(C(=O)OC2C3=C(SCCS3)C(=O)N2c2ccc3ccc(Cl)nc3n2)CC1` (centres undefined), for which the melting point came out at 271 °C.

For `CCOC(=O)C1=C(C)NC(C)=C2C(=O)Oc3cccnc3C12` (centres undefined), the melting point was in the range of 100 to 150 °C.

`CS(=O)(=O)N1CCC(Nc2nc(Nc3cccc(C(F)(F)F)c3)nc(OCc3ccccn3)n2)CC1` registered a melting point of 160 to 162 °C.

With `Cc1cc(C)c(N2CCCc3c2nn(C)c3-c2ccccc2C(F)(F)F)c(C)c1`, the melting point was in the range of 59 to 63 °C.

For `CCn1c(Oc2cccc(NC(N)=O)c2)nnc1[C@@H](C)NS(=O)(=O)c1ccc(Cl)c(Cl)c1`, the melting point was in the range of 137 to 138 °C.

Regarding `O=C(/C=C/c1ccn(S(=O)(=O)c2ccc(-n3cccn3)cc2)c1)NO`, the melting point was in the range of 161 to 167 °C.

The compound `Cc1cc(Cl)c2c(c1)C=C(C(=O)O)C(C(F)(F)F)O2` (centres undefined) displayed a melting point of 226 to 227 °C.

In turn, `COC(=O)C1=Cc2ccccc2N(C)CCC1` gave a melting point of 80 to 82 °C.

In turn, `O=C(Nc1ccc2cc(CN3CCCC3)cnc2c1)c1ccc(-c2ccccc2)cc1` yielded a melting point of 192 to 194 °C.

As to `COc1ccc(-c2nnc(C)n2-c2ccccc2)cc1`, the melting point fell in the range of 140 to 141 °C.

The compound `CC(=O)CCN1c2ccccc2NC(=O)C1C` (racemic) yielded a melting point of 108 to 109 °C.

`COC(COC(C)=O)C1(O)CCC2C3CCC4=CC(=O)CCC4(C)C3CCC21C` (centres undefined) returned a melting point of 145 to 147 °C.

`C=CCOc1ccc2c(C)cc(=O)oc2c1C(=O)C=Cc1cccc(OC)c1` registered a melting point of 61 to 63 °C.

Turning to `CC(C)(C)C(=O)NNc1ccc([N+](=O)[O-])cc1Br`, the melting point was found to be 145 °C.

`CCCCCCCCCC[C@H](NP(=O)(c1ccccc1)c1ccccc1)c1ccccc1`: the melting point fell in the range of 95 to 96 °C.

`CCC(C)n1c2ccccc2c2ccccc21` (centres undefined) returned a melting point of 62 to 63 °C.

`Cc1nnc(-c2ccc3occ(-c4cc(Cl)ccc4F)c3c2)o1`: the melting point was 187 to 188 °C.

`Cc1csc(-c2cc(-c3ccncc3)c3n(c2=O)CCCc2ccncc2-3)n1` showed a melting point of 300 to 302 °C.

`COC(=O)c1ccc(-c2cccc(N)c2)cc1`: the melting point was 145 to 148 °C.

In the case of `Cc1ccc(-c2nc(C)cc(Oc3ccccc3)n2)cc1`, the melting point is 90 to 91 °C.

For `CC(C)(C)OC(=O)NCCCCCNC1(c2ccccc2Cl)C(=O)Nc2ccc(Cl)cc21` (centres undefined), the melting point was determined as 185 °C.

For the compound `O=C(O)CCc1nc(-c2cc3ccccc3o2)cs1`, the melting point lay in the range of 203 to 205 °C.

As for `CCOC(=O)C(=O)Nc1nc(C)c(C)s1`, the melting point lay within 86 to 88 °C.

Take `O=[N+]([O-])c1cc(-c2cccnc2)ccc1O`: the melting point was above 300 °C.

In the case of `CCOCCn1c(COc2cccc(CO)c2)nc2ccccc21`, the melting point is 105 to 107 °C.

Take `O=P(O)(O)C1(P(=O)(O)O)CCCCN1`: the melting point was found to be 70 °C.

Take `C(=C\c1nc(COc2ccc(CCCn3cccc3)cc2)co1)/c1ccccc1`: the melting point was in the range of 108 to 109 °C.

In turn, `NC(=O)C(CCCC(NC(=O)OCc1ccccc1)C(=O)O)NC(=O)OCc1ccccc1` (centres undefined) registered a melting point of 145 to 150 °C.

`C=CCN1CCN(c2cc3c(cc2F)c(=O)c(C(=O)O)cn3CC=C)CC1` yielded a melting point of 186 °C.

`Cc1cc(CCCOc2c(C)cc(-c3noc(CC(F)(F)F)n3)cc2C)on1` came in with a melting point of 84 to 85 °C.

As to `CONC(=O)Nc1ccc(-c2sc3c(c2CNC(C)c2ccccc2)c(=O)n(C2CCC(O)CC2)c(=O)n3Cc2c(F)cccc2F)cc1` (centres undefined), the melting point was 137 to 138 °C.

`CSC(=Nc1nc(C)cc(C)n1)NS(=O)(=O)c1ccccc1-c1ccccc1` registered a melting point of 154 to 157 °C.

`CNc1nc2[nH]c(-c3cccc(CNC(=O)COC)n3)cc2c2c1ncn2C` gave a melting point of 263 °C.

Turning to `N#Cc1cc(-c2nc3cncnc3s2)ccc1Oc1ccc(Cl)cc1`, the melting point lay within 179 to 180 °C.

With `O=C(c1ccc(F)cc1)c1ccc(-c2ccccc2)cc1`, the melting point was 149 °C.

`CC(C)(C)c1ccc(-c2cc(C=O)cc3c2C(C)(C)CCC3(C)C)cc1` returned a melting point of 129 °C.

As for `COc1nnc(-c2ccc3occ(-c4ccc(OC(F)(F)F)cc4)c3c2)o1`, the melting point is 143 to 144 °C.

The compound `CC(C)(CC(=O)O)CC(=O)NC1(C(=O)NCCCCNc2ncccn2)Cc2ccccc2C1` had a melting point of 70 to 83 °C.

On to `COc1ccc(N2CCN(c3cccc(C)c3)CC2)nn1`, for which the melting point turned out to be 137 °C.

Compound `NC(=O)COc1ccc(CCN2CCC(Nc3nc4ccccc4n3Cc3ccc(F)cc3)CC2)cc1` returned a melting point of 180 °C.

Compound `CN1CC(=O)N2CCC[C@H]2C1=O` displayed a melting point of 133 to 135 °C.

As to `CCOc1ccc(C2(C(=O)Oc3ccc(C(=O)NO)cc3)CCCCC2)cc1`, the melting point was in the range of 140 to 143 °C.

Compound `CC(C)c1nc(C(C)C)c(CSc2ccc(O)cc2)c(-c2ccc(F)cc2)c1CO` registered a melting point of 178 to 179 °C.

Compound `Cc1cc(C)c2cccc(OCc3c(C)ccc(S(=O)(=O)N4CCC[C@H]4C(=O)NCCCNC(=O)c4ccc(C=NN)cc4)c3C)c2n1` showed a melting point of 150 °C.

The compound `Oc1cccc(/C=C/c2nc(-c3ccccc3)cs2)c1` had a melting point of 150 to 151 °C.

Consider `COC(=O)c1cc(O)nn1-c1ccccc1`, for which the melting point lay in the range of 227 to 228 °C.

Compound `CCc1nc2c(Cl)cc(F)c([N+](=O)[O-])c2s1` registered a melting point of 70 to 73 °C.

The compound `CCN1CCCC1CNC(=O)c1cc(N(C)S(=O)(=O)CC)ccc1OC` (centres undefined) came in with a melting point of 85 to 87 °C.

Compound `Cc1cccc2nc(-c3ccccc3)sc12` yielded a melting point of 53 to 54 °C.

Take `CN(C)c1ccc(C(=O)CCCC2CCN(Cc3ccccc3)CC2)cc1`: the melting point fell in the range of 83 to 85 °C.

With `CC(C)Cc1nn(-c2ccccc2)c(CC(C)C)c1CC(=O)O`, the melting point lay in the range of 125 to 126 °C.

The compound `CCOC(=O)C1=C(C)Nc2nc(N3CCOCC3)nc(N3CCOCC3)c2C1c1ccccc1[N+](=O)[O-]` (centres undefined) registered a melting point of 201 °C.

`CCN(CC)C(=O)C(=O)c1c[nH]c2c1ccc1c3ccccc3[nH]c12`: the melting point is above 295 °C.

`C=CCCCCCCCCCN1C(=O)c2ccccc2C1=O`: the melting point lay within 25 to 30 °C.

The compound `Cc1nc2cc(C#N)ccc2s1` returned a melting point of 158 to 160 °C.

`CC(C#N)(CCc1ccccc1C(F)(F)F)NC(=O)c1ccc(OC(F)(F)F)cc1` (centres undefined) gave a melting point of 87 to 89 °C.

Compound `CCOC(=O)C1CN(C)c2nc3cc(F)c(F)cc3cc2C1=O` (centres undefined) showed a melting point of 188 °C.

`CC(C)c1nc(Cc2ccccc2)c2c(c1O)COC2` registered a melting point of 232 to 233 °C.

Compound `CCOc1ccc2cc(-c3nc(C(C)(C)C)[nH]c3-c3ccncc3)ccc2c1` had a melting point of 258 to 259 °C.

For the compound `CCOC(=O)c1ccc(C)nc1`, the melting point was 57 to 58 °C.

For the compound `CC(CCC(=O)O)C1CCC2C3C(O)CC4CC(NC(=O)CNC(=O)OC(C)(C)C)CCC4(C)C3CC(O)C12C` (centres undefined), the melting point was 150 to 155 °C.

Turning to `O=c1oc2c(Cl)cccc2cc1S(=O)(=O)Nc1ccc(Br)cc1`, the melting point was in the range of 202 to 204 °C.

With `CC(C)(COC(=O)OOC(=O)OCC(C)(C)c1ccccc1)c1ccccc1`, the melting point is 59 to 60 °C.

Turning to `COc1ccc(-c2cc(C)c(C(=O)NCCCCc3cccnc3)c(C)c2)cc1OC`, the melting point was 117 to 119 °C.

Regarding `CP1(=O)OCc2ccccc21` (centres undefined), the melting point was 70 to 72 °C.

Take `O=C(c1ccc(Cl)cc1)N(c1ccccc1)c1ccc(O)cc1`: the melting point lay in the range of 224 to 225 °C.

On to `CCCN(CCC)C(=O)c1cc(C(=O)N[C@@H](Cc2cc(F)cc(F)c2)[C@H](O)CNCc2cccc(CC)c2)cc(-c2ncco2)c1`, for which the melting point was 65 to 67 °C.

`COC(=O)c1csc(-c2ccc(F)cc2)n1` had a melting point of 103 to 105 °C.

For the compound `CCCCc1nc2cccc(C(=O)OC)c2c(=O)n1Cc1ccc(-c2ccccc2-c2nnn[nH]2)cc1`, the melting point lay in the range of 133 to 143 °C.

`COc1ccc(-c2n[nH]c(N=CN(C)C)c2C#N)cc1` had a melting point of 169 to 171 °C.

Turning to `COCc1cc([N+](=O)[O-])ccc1C`, the melting point lay within 45 to 49 °C.

For `CCC(=O)OC1(C(=O)COC(C)=O)CCC2C3CC(C)C4=CC(=O)C=CC4(C)C3C(O)CC21C` (centres undefined), the melting point turned out to be 138 °C.

`CCN(c1ccc(C#N)cc1)S(=O)(=O)c1ccc(C)cc1` came in with a melting point of 85.4 to 86.6 °C.

Compound `CCOc1ccc(C2=NN(c3ccc(C(=O)N4CCS(=O)(=O)CC4)cc3)C(=O)[C@H]3CC=CC[C@@H]23)cc1OCC` (relative stereo) displayed a melting point of 186 to 187 °C.

For `O=C1c2ccccc2CCC1C(=O)C(F)(F)F` (centres undefined), the melting point was in the range of 48 to 49 °C.

`O=Cc1cc2ccccc2n1-c1cccnc1` registered a melting point of 101 to 103 °C.

With `N#CC(N)c1ccc(F)cc1` (centres undefined), the melting point was found to be 77.9 °C.

`OC1(c2ccccc2)CCN(CCc2c[nH]c3ccccc23)CC1`: the melting point fell in the range of 133 to 137 °C.
